According to the supplement of paper PMC10307832:

Columns and labels:
Assay in all cases: relative viability (nuclei count vs DMSO), 5 days (fraction); higher = more cells survive
[1] = compound: Cc1ccc(-n2nc(C(C)(C)C)cc2NC(=O)Nc2ccc(OCCN3CCOCC3)c3ccccc23)cc1 [Doramapimod] + N=C(N)NC(=N)NCCc1ccccc1 [Phenformin] (partner 250 µM)
Summary of the method: (§1)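 Lung cancer cell lines were seeded in 1536-well plates and dosed by pin tool the next day, with either a single drug or a fixed anchor-drug dose combined with five library-drug doses (not always all listed) spaced in √10 steps. Five days later, one step fixed the cells and stained their nuclei (final 0.05% Triton X-100, 1% formaldehyde, 1 ug/ml Hoechst), and nuclei were counted on 4× images. Relative viability is the nuclei count in treated wells divided by the count in vehicle wells, and each value is the median of duplicate plates.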

[2] = compound: Cn1c(Nc2ccc(C(F)(F)F)cc2)nc2cc(Oc3ccnc(-c4ncc(C(F)(F)F)[nH]4)c3)ccc21 [RAF265] + CS(=O)(=O)N1CCN(Cc2cc3nc(-c4cccc5[nH]ncc45)nc(N4CCOCC4)c3s2)CC1 [Pictilisib] (partner 1 µM)
Summary of the method: as §1

[3] = compound: Cc1ccc(-n2nc(C(C)(C)C)cc2NC(=O)Nc2ccc(OCCN3CCOCC3)c3ccccc23)cc1 [Doramapimod] + CC(C)C[C@H](NC(=O)[C@H](Cc1ccccc1)NC(=O)c1cnccn1)B(O)O [Bortezomib] (partner 0.002 µM)
Summary of the method: as §1

[4] = compound: C1=CC=C2C(=C1)C=CC(=C2SSC3=C(C=CC4=CC=CC=C43)O)O [IPA-3] + N=C(N)NC(=N)NCCc1ccccc1 [Phenformin] (partner 250 µM)
Summary of the method: as §1

## UMC-11
[1]; first compound 0.02 µM
  relative viability: 0.319
[1]; first compound 0.06325 µM
  relative viability: 0.32
[1]; first compound 0.2 µM
  relative viability: 0.339
[1]; first compound 0.6325 µM
  relative viability: 0.368
[1]; first compound 2 µM
  relative viability: 0.309
[2]; first compound 0.01 µM
  relative viability: 0.782
[2]; first compound 0.03162 µM
  relative viability: 0.747
[2]; first compound 0.1 µM
  relative viability: 0.88
[2]; first compound 0.3162 µM
  relative viability: 0.822
[2]; first compound 1 µM
  relative viability: 0.644
[3]; first compound 0.02 µM
  relative viability: 0.772
[3]; first compound 0.06325 µM
  relative viability: 0.784
[3]; first compound 0.2 µM
  relative viability: 0.564
[3]; first compound 0.6325 µM
  relative viability: 0.675
[3]; first compound 2 µM
  relative viability: 0.568
[4]; first compound 0.2 µM
  relative viability: 0.391
[4]; first compound 0.6325 µM
  relative viability: 0.336
[4]; first compound 2 µM
  relative viability: 0.316
[4]; first compound 6.325 µM
  relative viability: 0.341
[4]; first compound 20 µM
  relative viability: 0.357
